Experimental findings from US6858624B2, “Aryl fused azapolycyclic compounds” (Pfizer, Inc., priority 2001, dated 2005) are described below.

The structures appear in SMILES notation.

The nature of series [1]: biotransformation in liver microsomes. It counts as in vitro ADME. Conditions: bicarbonate buffer, CO2 atmosphere, UDPGA. An excerpt:
A number of studies have been conducted on precursor compounds to those of formula I of the present invention. In particular, studies have been carried out on 5,8,14-triazatetracyclo[10.3.1.0^2,110.0^4,9]-hexadeca-2(11),3,5,7,9-pentaene: [drawing 12] Means of the synthesis of this compound may be found International Patent Publication No. WO 99/35131 and WO 01/62736.
In general terms: Liver microsomes are a subcellular fraction often used to study metabolism.

Series [2] in a line: in vivo metabolism study, human (circulating and excreted metabolites). The text has this:
(§1) The compound 5,8,14-triazatetracyclo[10.3.1.0^2,110.0^4,9]-hexadeca-2(11),3,5,7,9-pentaene has also been studied in vivo (rat, monkey, mouse, and human). Metabolite structures are described in Scheme I below.
(§2) The N-carbamoyl glucuronide represents an unusual, albeit not unprecedented metabolite that arises via association of carbon dioxide with the secondary amine followed by glucuronidation. […] The only excreted metabolites in human were the hydroxyquinoxaline metabolite (2.9% of dose): [drawing 17] and N-carbamoyl glucuronide (3.6% of dose).

Series [3] in a line: in vivo metabolism study, preclinical species.
Description: as §1, §2

As for `c1cnc2cc3c(cc2n1)C1CNCC3C1` [5,8,14-triazatetracyclo[10.3.1.0^2,110.0^4,9]-hexadeca-2(11),3,5,7,9-pentaene], in series [1], the “biotransformation in liver microsomes” value is “underwent N-carbamoyl glucuronidation”. Take `O=C(O)C1OC(OC(=O)N2CC3CC(C2)c2cc4nccnc4cc23)C(O)C(O)C1O` (stereo not drawn) [N-carbamoyl glucuronide]: the “metabolites in human circulation” value in series [2] is “Metabolites in human circulation included”. The “excreted metabolite in human” value in series [2] (after 5,8,14-triazatetracyclo[10.3.1.0^2,110.0^4,9]-hexadeca-2(11),3,5,7,9-pentaene) is reported as 3.6 % of dose. Besides, the “metabolite present in rat and monkey” value in series [3] was “present in rat and monkey”. For the molecule `O=CN1CC2CC(C1)c1cc3nccnc3cc12` [N-formyl], the “metabolites in human circulation” value in series [2] is “Metabolites in human circulation included”. On to `Oc1cnc2cc3c(cc2n1)C1CNCC3C1` (stereo not drawn) [hydroxyquinoxaline metabolite], for which the “excreted metabolite in human” value in series [2] (in vivo) was 2.9 % of dose.
